For one test, the system named is NF-κB. As to the kind of experiment: NF-κB inhibition assay, TNF-α stimulated HEK293/NF-κB-luc luciferase reporter cells. It is filed as cell-based. The note with it: TNF-α (20 ng/mL) induced, mean ± SD of three independent measurements. As for the experimental part:
NF-κB inhibitory activity was assessed using a HEK293/NF-κB-luc cell line (Panomics, Fremont, CA) as previously described (Ndongo et al. [2017]). Briefly, cells were cultured at 37 °C and 5% CO2 atmosphere in high glucose Dulbecco's modified Eagle's medium (ThermoFisher Scientific) with 100 IU/mL penicillin, 100 μg/mL streptomycin, 100 μg/mL hygromycin B (ThermoFisher Scientific) and 10% foetal bovine serum (Biowest, Nuaillé, France). The day before the assay, cells were treated for 1 h with 2.5 μM of Cell Tracker Green CMFDA (ThermoFisher Scientific), a fluorescent dye used to quantify cell viability, in FBS-free medium. Then, 10^4 cells/well were seeded in 96-well plates and incubated overnight. After that, cells were treated with either the vehicle control (0.5% DMSO in culture medium) or the samples and stimulated for 5 h with 20 ng/mL of TNF-α (Sigma-Aldrich, Saint Louis, MO). Finally, cells were lysed with reporter lysis buffer (Promega, Madison, WI) and fluorescence signals were read on a Cytation 3 multimode plate reader (Biotek, Winooski, VT). Luciferase assay reagent (Promega) was then added to each well using the auto-injector and the luminescence signals were read. The fluorescence signal was used to normalize the luminescence signal for each well to limit the influence of cell toxicity in luminescence signal intensity. Relative NF-κB activity was quantified by comparing the normalized luminescence signal of vehicle treated nonstimulated cells with the one of vehicle treated stimulated cells. All pure compounds were first screened at 20 μM. Compounds able to inhibit more than 50% of TNF-α induced NF-κB activity at this concentration were considered as active and were selected for calculation of their IC50. Nonlinear regression (with sigmoidal dose response) was used to calculate the IC50 values using GraphPad Prism. Each compound was tested in duplicate and three independent experiments were performed using parthenolide as positive control.
(Reporter assays use an easily measured gene product as a stand-in for the process of interest.)

Test [1] concerns MM-CSCs (multiple myeloma cancer stem cells). In words: Antiproliferative activity, MTT assay. The note with it: 72 h; for IC50: Homo sapiens, mean ± SD of three measurements. It is filed as cell-based, Human. As for the experimental part:
(§1) Human multiple myeloma cancer stem cells (MM-CSCs) derived from the bone marrow of a MM patient, were obtained from Celprogen (Torrance, CA). MM-CSCs were used between passages 4 and 12 for experiments. The tumour plasma cells RPMI 8226 were obtained from LGC standards (Middlesex, United Kingdom). RPMI 8226 cells were used between passages 10 and 25 for experiments. The two cell lines were cultured at 37 °C and 5% CO2 atmosphere in RPMI 1640 culture medium supplemented with 10% foetal bovine serum (Biowest), 100 IU/mL penicillin and 250 μg/mL streptomycin. MTT and XTT assays were used to evaluate the antiproliferative activity of the pure compounds in MM-CSCs and RPMI 8226 cells, respectively (Issa and Cuendet [2017]). MM-CSCs were seeded in 96 well plates at a density of 5,000 cells per well and allowed to adhere for 24 h, whereas RPMI 8226 cells were plated at a density of 15,000 cells per well and treated immediately. MM-CSCs and RPMI 8226 cells were treated with increasing concentrations (0–20 µM) of compounds for 72 h. Twenty microlitres of MTT solution (5 mg/mL) or 50 μL XTT solution (1 mg/mL) were added in each well and incubated for 2 h (MTT assay) or 4 h (XTT assay). The media and MTT solution were aspirated and the cells containing formazan were solubilized in 100 µL DMSO. Absorbance was measured at 590 nm (MTT assay) or 450 nm (XTT assay). The percentage of cell viability was calculated as the absorbance of each well was divided by that of the vehicle control wells (0.5% DMSO in culture medium) and multiplied by 100. IC50 values were calculated using GraphPad Prism. Each compound was tested in triplicate and three independent experiments were performed using bortezomib as positive control.
A general note: Tetrazolium assays rely on reduction of a dye to a coloured formazan, in cell work by metabolically active cells.

Another test deals with RPMI 8226 cells. In words: Antiproliferative activity, XTT assay. The test is classed as cell-based. The note with it: for Antiproliferative activity against RPMI 8226 (in words): 72 h; for IC50: Homo sapiens, RPMI-8226, 72 h, mean ± SD of three measurements. The method, then:
as §1

Test [2] in a line: DPPH radical scavenging assay. The note with it: pure compound. The method, then: The DPPH radical scavenging activity was carried out as described previously (Şahin et al. [2004]) with slight modifications. Samples (1–200 µg/mL) were added to a 60-μM methanol solution of DPPH. The absorbance of the solution was measured at 517 nm after a 30-min incubation period at room temperature in the dark.
(In general: The DPPH test is a chemical assay of radical scavenging.)

The nature of test [3]: NO radical scavenging assay. The note with it: pure compound.

Entries after “also recorded” stand apart in the source; their conditions may differ. A value given as a limit tells only on which side of the number the result lay.

For orientation: IC50 means the midpoint of a concentration-inhibition curve. Low values mean greater potency in that assay, high ones weaker potency in that assay.

Regarding `CC1=C(CO)C(=O)O[C@@H]([C@@H](C)[C@H]2CC[C@H]3[C@@H]4C[C@H]5O[C@]56[C@@H](O)C=CC(=O)[C@]6(C)[C@H]4CC[C@]23C)C1` [Compound 2, withaferin A], the concentration for half-maximal inhibition (IC50) with NF-κB (Homo sapiens, HEK293, 5 h) worked out at 0.047 µM; with NF-κB (5 h), 0.05 ± 0.01 µM; in test [1], 0.33 ± 0.02 µM; in the test on RPMI 8226 cells, 0.17 ± 0.03 µM. Also, the “Antiproliferative activity against MM-CSCs (in words)” value in test [1] is listed as “low µM antiproliferative activity”. For the same molecule, the “Antiproliferative activity against RPMI 8226 (in words)” value with RPMI 8226 cells is reported as “low µM antiproliferative activity”.
Regarding `C[C@@H]1O[C@@H](OC[C@H]2O[C@@H](Oc3c(-c4ccc(O)cc4)oc4cc(O)cc(O)c4c3=O)[C@H](O)[C@@H](O)[C@@H]2O)[C@H](O)[C@H](O)[C@H]1O` [Compound 4, nicotiflorin], the 50% inhibitory concentration (IC50) in test [2] is 35.3 µM; in test [3], 41.3 µM; with NF-κB (Homo sapiens, HEK293, 5 h), over 20 µM; in test [1], over 20 µM; in the test with RPMI 8226 cells, 7.1 ± 0.1 µM.
For the molecule `CC1=C(C)C(=O)O[C@@H]([C@](C)(O)[C@]2(O)CC[C@@]3(O)[C@@H]4CC=C5CC=CC(=O)[C@]5(C)[C@H]4CC[C@]23C)C1` [Compound 1, withanolide F], the 50% inhibitory concentration (IC50) in the test with NF-κB (Homo sapiens, HEK293, 5 h) was 1.2 ± 0.2 µM; in test [1], 5.3 ± 0.9 µM; in the test with RPMI 8226 cells, 0.1 ± 0.01 µM. Besides, in test [1], the “Antiproliferative activity against MM-CSCs (in words)” value is reported as “low µM antiproliferative activity; also recorded: showed activity”. Besides, in the test with RPMI 8226 cells, the “Antiproliferative activity against RPMI 8226 (in words)” value was “low µM antiproliferative activity; also recorded: showed activity”.
Molecule `C=C1C(=O)O[C@H]2[C@H]1CC/C(C)=C/CC[C@@]1(C)O[C@@H]21` [Parthenolide, parthenolide, reference compound] had an IC50 in the test with NF-κB (Homo sapiens, HEK293, 5 h) of 0.53 ± 0.01 µM.
On to `CC1=C(C)C(=O)OC(C(C)(O)C2(O)CCC3(O)C4CC=C5CC(OC6OC(CO)C(O)C(O)C6O)CC(=O)C5(C)C4CCC32C)C1` (stereo not shown) [Compound 3, coagulin L], for which the 50% inhibitory concentration (IC50) with NF-κB (Homo sapiens, HEK293, 5 h) was over 20 µM; in test [1], over 20 µM; in the test with RPMI 8226 cells, 3.6 ± 0.6 µM.
Consider `CC(C)C[C@H](NC(=O)[C@H](Cc1ccccc1)NC(=O)c1cnccn1)B(O)O` [Bortezomib, bortezomib, reference compound], for which the concentration for half-maximal inhibition (IC50) in test [1] was 0.0091 ± 0.0014 µM; with RPMI 8226 cells, 0.0033 ± 0.0008 µM.
`CC1=C(C)C(=O)OC(C(C)(O)C2(O)CCC3(O)C4CC=C5CC(OC6OC(CO)C(OC7OC(C)C(O)C(O)C7O)C(O)C6O)CC(=O)C5(C)C4CCC32C)C1` [Compound 5, (14R,17S,20R,22R)-3β-O-(α-L-rhamnopyranosyl-(1→4)-β-D-glucopyranosyl)-14,17,20-trihydroxy-1-oxo-witha-5,24-dienolide]: the IC50 with NF-κB (Homo sapiens, HEK293, 5 h) is over 20 µM; in test [1], over 20 µM; in the test on RPMI 8226 cells it was 3.2 ± 0.4 µM.

The record behind these values is article PMC6249549, “Bioactive metabolites from the leaves of Withania adpressa” (Pharmaceutical Biology, 2018).
